Values joined by “and” are separate entries in the source; they are usually repeats but may differ in a detail not shown here. Equal entries are not always repeated. “Also recorded” adds a separate entry of the source. Where two headings read alike, the source gives them in different places.
How the values were obtained:
Lung carcinoma = Lung carcinoma xenograft; type: in vivo, NMRI (nude) mice; conditions: both dose groups (4 mg/kg and 23.85 mg/kg once per week)
Experimental: These tumors display similar characteristics as the patient tumors, since they are passaged in mice at low numbers, to retain original characteristics.
NMRI (nude) mice are implanted with a Lung carcinoma (determined via IHC analysis as CD138 strong positive).
Tumor diameters are measured two times a week.

[1] = test system: relapsed/refractory multiple myeloma; assay: Human trial, repeated multiple dose regimen (days 1, 8, 15)
Text: This includes, e.g., in alternating 2 and 3 day intervals, in 4 day intervals, in progressive increasing intervals such as on day 1, 3, 6, 10, 15. […] Such a treatment cycle, including a resting period, is also referred to herein as “full” or “complete” treatment cycle. A treatment free period describes the time during which no treatment is given. Thus, in the above example, the treatment free period would start at day 16. At the beginning of the resting period, no immunoconjugate is administered to the patient.
Generally, all toxicities of at least grade 3 are defined as DLT. Further study specific DLT criteria which can be employed are listed below: Nonhematological: • Alopecia, of any grade, is not considered a DLT • Grade 3-4 nausea and vomiting lasting longer than 3 days despite optimal antiemetic medication.^a • Grade 3-4 diarrhea lasting longer than 3 days despite optimal antidiarrheal medication.^a a. Optimal antidiarrheal and antiemetic treatment were determined by each investigator.
These DLTs may occur in a first or a subsequent treatment cycle. […] Preferably DLTs in the first cycle are considered.
(§1) Initially, the response to treatment was evaluated at day 1 of treatment cycles 1-3 by M-protein quantification using immunoelectrophoresis (IEP) and immunofixation electrophoresis (IFE) from serum and 24-hour urine collection. […] A general quantitative immunoglobulin assessment was done together with M-protein quantification.
(§2) Serum samples were used to perform FLC assays to examine multiple myeloma subjects with no detectable M-protein (nonsecretory/oligosecretory myeloma) and to allow for detection of early response to treatment. Therefore serum FLC assays were performed on day 1, 2, 3, and 8 of treatment cycle 1, on day 2, 3, 8 and 15 of cycle 4, as well as on day 1, 8 and 15 of all other treatment cycles. M-protein and FLC were be analyzed at the screening and at the close-out visit. Evaluations at day 1 of cycle 1 served as baseline values.

[2] = test system: relapsed or relapsed refractory multiple myeloma
Experimental: as §1, §2

[3] = test system: MOLP8 multiple myeloma cells; assay: MOLP8 xenograft, combination BT062 and VELCADE; type: in vivo, mice
Text: The ACTIVITY RATING is another measurement for the effects of a combination. This rating is based on the Log10 cell kill
where (T-C) or tumor growth delay, is the median time in days required for the treatment group (T) and the control group (C) tumours, to reach a predetermined size (600 mm^3).

[4] = test system: plasma cell myeloma cell line L363; type: in vivo, NOD/SCID mice; conditions: 4 mg/kg BT062 alone, once weekly
Experimental: In this model, a highly aggressive CD138 expressing plasma cell myeloma cell line L363 was subcutaneously implanted into NOD/SCID mice. Treatment started when tumors reached a size of approx. 100 mm^3. […] Tumor size was measured once weekly.

[5] = test system: human derived breast cancer model with CD138 IHC score 1-2; assay: Breast cancer model, CD138 IHC score 1-2; type: in vivo, NMRI nude mice; conditions: 1-4 mg/kg once weekly (FIG. 37)
Text: No difference in the treatment regimens was observed. The results are shown in terms of the effect on the mean relative tumor volume in the model relative to an intravenous administration of PBS. For the calculation of the median relative tumor volume on day, see FIG. 33.

[6] = repeated single doses of 160 mg/m^2 (FIG. 28)

## BT062
Lung carcinoma
  tumor response: Complete remission
[1]; 40 mg/m^2 weekly, 14 administrations
  DLTs: no DLTs
[1]; 80 mg/m^2 weekly, Patient 12
  response: partial response
[1]; 100 mg/m^2 weekly, patient 15 (FIG. 23)
  progression free survival: more than 3 months
[1]; 120 mg/m^2 weekly, patient 19 (FIG. 24)
  response: unconfirmed minor response
[1]; 140 mg/m^2 weekly
  patients displaying DLT: 1 out of 6
[1]; 160 mg/m^2 weekly
  patients displaying DLTs: two out of the four and 2 out of 4
[1]; 160 mg/m^2 weekly, patient 31
  response: minor response
[1]; 160 mg/m^2 weekly, patient 31 (FIG. 25)
  M-protein decrease: more than 25%
[1]; 3 × 50 mg/m^2, over six cycles (Patient 6)
  disease status: no disease progression; also recorded: At least stable disease could be achieved
[1]; 3 × 65 mg/m^2, after a single treatment cycle (FIG. 21)
  serum FLC level: A strong decrease of the serum FLC level
[1]; 3 × 80 mg/m^2, aggregate 240 mg/m^2 in three weeks
  Tolerability: well tolerated
[1]; 3 × 120 mg/m^2, after 3rd, 7th and 10th cycle
  reduction of urine M protein: 50% achieved after 3rd, 7th and 10th cycle
[1]; FIG. 18
  patients with progression free survival of at least 168 days: four
  patients with progression free survival of at least 300 days: two
[1]; Patient 8 (FIG. 21)
  treatment without disease progression: 168 days
[1]; all dose levels (FIG. 18)
  patients (out of 32) with progression free survival of at least 3 months: 14
[1]; at 420 (3 × 140 mg/m^2), out of six
  DLT (palmar-plantar erythrodysaethesia syndrome), patients: toxicities (up to now), one
[1]; days 1, 8, 15
  MAD: 160 mg/m^2
[1]; three 21 day cycles of 3×100 mg/m^2
  DLTs: No DLTs
[1]; three 21 day cycles of 3×120 mg/m^2
  DLTs: No DLTs
[2]; 20 mg/m^2, one patient
  treatment cycles of 21 days without disease progression: 10 cycles and Diseases progression after Cycle 10 cycles
[2]; 20 mg/m^2, after 8th treatment
  response (urine M-protein criteria): M-Protein criteria for Minor Response reached after 8th
[2]; 40 mg/m^2, after 1st treatment
  Serum M-Protein: Serum M-Protein decreased after 1st treatment and stabilized
[2]; 160 mg/m^2, after 2nd, 3rd and 4th administration (FIG. 26)
  response (FLC criteria): partial response; also recorded: FLC criteria for Partial Response were reached very early
[2]; 160 mg/m^2, after 2nd, 3rd and 4th treatment
  FLC levels reduced vs baseline: > 50%
[2]; 160 mg/m^2, during 1st cycle
  FLC levels reduced vs baseline: ~40%
[2]; 200 mg/m^2 dose group
  toxicity in the mucosa: DLTs
[2]; all dose levels
  patients out of 32 with diminished disease progression (at least a fourth treatment cycle): At least 12
[2]; human, in vivo
  MTD: 160 mg/m^2
[2]; repeated single dosages, e.g. 20, 40, 80 and 120 mg/m^2
  decrease of urine M-protein: more than 50%
[2]; repeated single dose
  MAD: 200 mg/m^2
[2]; repeated single dose up to 120 mg/m^2
  toxicity towards non-cancer cells expressing CD138: no dose limiting toxicity
[2]; repeated single dose, not qualifying for DLT
  eye toxicity: Serious adverse events
[2]; [6]
  M-protein levels reduced by: 25%
  progression free survival: about 22 months
[2]; single dose every three weeks, 200 mg/m^2
  Tolerability: DLTs
[2]; single dose once in 21 day cycle
  dose limiting toxicity (DLT) dose: 200 mg/m^2
[3]; BT062 100 ug/kg
  (T − C): 5.5 days
  Regressions Complete: 0/6
  Regressions Partial: 0/6
  Result: Inactive
  Tumor free survivors day 67: 0/6
  log cell kill: 0.5
[3]; BT062 100 ug/kg, Day 1
  T/C (%): 43%
[3]; BT062 200 ug/kg
  (T − C): 14.5 days
  Regressions Complete: 0/6
  Regressions Partial: 1/6
  Result: Active
  Tumor free survivors day 67: 0/6
  log cell kill: 1.3
[3]; BT062 200 ug/kg, Day 1
  T/C (%): 11%
[3]; BT062 400 ug/kg
  (T − C): 31.5 days
  Regressions Complete: 2/6
  Regressions Partial: 4/6
  Result: highly active (A Log10 cell kill of higher than 2.8)
  Tumor free survivors day 67: 0/6
  log cell kill: 2.8
[3]; BT062 400 ug/kg, Day 1
  T/C (%): 7%
[3]; last line: BT062 400 ug/kg
  (T − C): 36.5 days
  Regressions Complete: 0/6
  Regressions Partial: 6/6
  Result: highly active (A Log10 cell kill of higher than 2.8)
  Tumor free survivors day 67: 0/6
  log cell kill: 3.2
[3]; last line: BT062 400 ug/kg Day 1
  T/C (%): 7%
[4]
  tumor growth: active in reducing the tumor growth
[5]
  tumor response: did not respond
